{"source": "patent US20260102372A1", "about": "“NEW FORMULATIONS FOR MENTAL DISORDERS OR MENTAL ENHANCEMENT” (TACTOGEN INC, priority 2023, published 2026)", "origin": "cited, not measured here", "key": {"[1]": {"details": "nonhuman animals"}, "PTSD": {"tested_on": "PTSD", "details": "MDMA arm"}, "[2]": {"biological_target": "cytochrome p450 isozyme 2D6 (CYP2D6) (Homo sapiens, UniProt P10635)", "sequence (P10635 whole entry)": "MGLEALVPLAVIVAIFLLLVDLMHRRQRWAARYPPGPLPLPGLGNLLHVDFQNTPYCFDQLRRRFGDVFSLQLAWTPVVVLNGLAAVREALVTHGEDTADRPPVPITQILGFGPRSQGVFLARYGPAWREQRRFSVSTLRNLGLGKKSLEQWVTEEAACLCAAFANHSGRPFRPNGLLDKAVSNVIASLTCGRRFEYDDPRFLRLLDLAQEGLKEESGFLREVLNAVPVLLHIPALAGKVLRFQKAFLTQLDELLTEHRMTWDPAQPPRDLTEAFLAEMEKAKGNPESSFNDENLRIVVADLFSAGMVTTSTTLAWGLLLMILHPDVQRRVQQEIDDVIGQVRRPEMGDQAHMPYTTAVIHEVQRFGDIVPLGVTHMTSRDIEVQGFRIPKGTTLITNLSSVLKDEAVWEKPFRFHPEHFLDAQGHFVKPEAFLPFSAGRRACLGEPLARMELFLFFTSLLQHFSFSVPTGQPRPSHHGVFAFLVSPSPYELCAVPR"}, "[3]": {"details": "pooled Phase 2 trials"}, "[4]": {"experiment": "not given", "remark": "listed apart in the source"}}}
{"smiles": "CNC(C)Cc1ccc2c(c1)OCO2", "note": "(stereo not shown) [MDMA, [1-(2H-1,3-benzodioxol-5-yl)propan-2-yl](methyl)amine]", "values": [{"measurement": "markers of serotonergic functioning (brain serotonin, tryptophan hydroxylase, serotonin transporter density)", "setting": "[1]", "result": "decreases"}, {"measurement": "measures of oxidative stress", "setting": "[1]", "result": "increases"}, {"measurement": "participants with sufficient improvement that they were no longer diagnosable with PTSD", "setting": "PTSD; first of two Phase 3 trials (Mitchell et al. 2021)", "result": "one-third"}, {"measurement": "participants improved", "setting": "PTSD; first of two Phase 3 trials, MDMA-assisted therapy for PTSD (Mitchell et al. 2021)", "result": 88, "unit": "%"}, {"measurement": "CYP2D6 interaction", "setting": "[2]", "result": "both a substrate and inhibitor"}, {"measurement": "half-life in plasma", "result": "seven to nine"}, {"measurement": "nausea occurred in participants", "setting": "[3]; 29 of 72 participants (Mithoefer et al. 2019)", "result": 40.3, "unit": "%"}, {"measurement": "anxiety occurred in participants", "setting": "[3]; 52 of 72 participants (Mithoefer et al. 2019)", "result": 72.2, "unit": "%"}, {"measurement": "duration of acute psychological and emotional effects (average)", "setting": "[4]; after 75 or 125 mg MDMA, standard deviation 1.3 hours (Vizeli & Liechti 2017)", "result": 4.2, "unit": "hours"}, {"measurement": "time by which acute emotional effects have largely resolved", "setting": "[4]; after administration of MDMA", "result": "≤ 8", "unit": "h"}]}
